In patent publication US20250375417A1, “OREXIN RECEPTOR 2 (OX2R) AGONIST FOR USE IN NARCOLEPSY TYPE 1 (NT1)” (TAKEDA PHARMACEUTICAL COMPANY LIMITED, priority 2024, published 2025):
Where “and” joins values, the source holds several entries; their conditions need not be identical. Equal values may be shown once.

Legend:
Format in all cases: in vivo, human
patients with NT1 = test: Ambulatory blood pressure monitoring (ABPM), nocturnal BP dip, Phase 2 NT1 trial; conditions: for DBP 24-h average, LS mean change at Week 6 from baseline / DBP 24-h pattern dip, LS mean change at Week 6 from baseline / DBP 24-h pattern highest, LS mean change at Week 6 from baseline / DBP 24-h pattern lowest, LS mean change at Week 6 from baseline / SBP 24-h average, LS mean change at Week 6 from baseline / SBP 24-h pattern dip, LS mean change at Week 6 from baseline / SBP 24-h pattern highest, LS mean change at Week 6 from baseline / SBP 24-h pattern lowest, LS mean change at Week 6 from baseline: baseline DBP non-dippers
From the text: Blunted nocturnal blood pressure (BP) dip, a potential risk factor for cardiovascular disease, may affect approximately ⅓ of patients with NT1. In the studies described herein, ambulatory blood pressure monitoring (ABPM) recordings can be obtained over an approximately 24.5-hour period and participants should not be confined to the clinical site during most of the 24.5-hour recording period. The ABPM device should be applied on-site. Because it is a requirement that the ABPM devices begin recording in the morning before the first morning dose (or similar time if performed during screening period), site staff may opt to confine participants in the evening before fitting participants with the ABPM monitoring device. If the participant is travelling to the site for the ABPM fitting, they may delay their first morning dose of study medication (to be taken no later than 10 AM) if needed. Participants who are confined the evening prior should also take their study drug right after the ABPM recording starts. For the ABPM during the screening period, the recording should begin between 8:00 AM±2 hours. Sites should ensure that all recordings meet the minimum threshold of acceptability. […] Participants will be trained on the use of the device with NT1.
Using functional data analysis, systolic BP (SBP) and diastolic BP (DBP) can be estimated in 24-hour patterns and key parameters, such as average, waveform amplitude, lowest and highest points, and dip amplitude (defined as [average−lowest]/average) can be extracted for each subject-visit. Non-dippers are defined as DBP 24-hour dip<13.44, as projected from a DBP fixed-window daytime to nighttime dip of <10%.
Blunted nocturnal blood pressure (BP) dip, a potential risk factor for cardiovascular disease, may affect approximately ⅓ of patients with narcolepsy type 1 (NT1). Ambulatory BP monitor (ABPM) data from 112 study patients with NT1 was measured. Using functional data analysis, systolic BP (SBP) and diastolic BP (DBP) were estimated in 24-hour patterns and key parameters were extracted, such as average, waveform amplitude, lowest and highest values, and dip amplitude (defined as [average-lowest]/average) at baseline and Week 6. […] Non-dippers were defined as having DBP 24-hour dip below a threshold corresponding to DBP daytime (6 am-10 pm) to nighttime ([…]) drop of <10%. Longitudinal changes in BP parameters were quantified across five randomized treatment arms (placebo, Compound A 0.5 mg twice 3 hours apart, 2 mg twice 3 hours apart, 2 mg then 5 mg 3 hours later, and 7 mg once-daily) at Week 6 post-baseline. Associations between BP and sleep parameters were assessed longitudinally by matching ABPM data from baseline and Week 6 with nocturnal polysomnography data from baseline and Week 8, respectively.

participants with NT1 [1] = test: At-home continuous accelerometry of sleep, Phase 2 NT1 trial
From the text: Polysomnography (PSG) was collected at baseline and after 27 and 54 days of treatment. Sleep was manually scored following AASM guidelines; sleep metrics were extracted then computed by whole night and by quarter-night. Continuous accelerometry (Empatica EmbracePlus watch) allowed assessment of sleep in a naturalistic manner at home. Daily sleep diaries were used to capture subjective reports. Mixed effects models were fit with treatment, quarter-night, visit, and their interactions as fixed effects and random intercepts per subject. A reference PSG dataset (Vilela M, et al. J Sleep Res 2024; e14216) from CHU Montpellier (49 clinical controls and 114 patients with NT1, all drug-free) was analyzed to establish DNS characteristics of NT1.
Consistent with sleep diaries, adverse events of mild to moderate insomnia were reported by 48% of Compound A-treated participants and most resolved within 1 week. […] Conclusion: Treatment with Compound A may help normalize REM architecture and reduce disturbing dreams without changing WASO or deep sleep.

participants with NT1 [2] = test: Narcolepsy Severity Scale for Clinical Trials (NSS-CT), Phase 2 NT1 trial
From the text: Severity of NT1 symptoms can be assessed through the use of the NSS-CT. The NSS-CT is a 15-item self-administered questionnaire (total score: 0-57) that assesses the severity and consequences of the 5 major narcolepsy symptoms such as daytime sleepiness, cataplexy, hallucinations, sleep paralysis, and disrupted nighttime sleep (DNS). […] Further, the symptom number was associated with diagnosis delay, age at onset, and ESS and Beck Depression Inventory scores (Dauvilliers et al. 2020).
Methods: An analysis of exploratory data from the study was conducted to explore disease severity in individuals with ICSD-3 confirmed NT1. Eligible participants were age 18-70 years (Japan: 16-70), with an Epworth Sleepiness Scale (ESS) score>12, and >4 partial/complete episodes of cataplexy/week. Exploratory endpoints included change from baseline to Week 8 in the narcolepsy Severity Scale for clinical trials (NSS-CT), and Clinical Global Impression (CGI) and Patient Global Impression (PGI) at Week 8. The NSS-CT, a validated, self-administered 15-item scale, evaluates the severity, frequency, and impact of five main narcolepsy symptoms (higher scores indicate more severe symptoms).

In the case of `CCS(=O)(=O)N[C@@H]1[C@H](Cc2cccc(-c3cc(F)cc(F)c3)c2F)N(C(=O)C(C)(C)O)CC1(F)F` [Compound A, N-{(2S,3R)-4,4-difluoro-1-(2-hydroxy-2-methylpropanoyl)-2-[(2,3′,5′-trifluoro[1,1′-biphenyl]-3-yl)methyl]pyrrolidin-3-yl}ethanesulfonamide], the “SBP or DBP dip, change from baseline at Week 6” value (patients with NT1; baseline DBP dippers (n=73), either treatment arm) is reported as “no significant changes”, the “DBP 24-h average, LS mean change at Week 6 from baseline” value (shortened to “DBP 24-h average, LS mean change”) (patients with NT1; 0.5 mg/0.5 mg) is reported as 0.17 and the “DBP 24-h pattern dip, LS mean change at Week 6 from baseline” value (“DBP 24-h pattern dip, LS mean change” for short) (patients with NT1; 0.5 mg/0.5 mg) is reported as 2.7% and 2.67%. For the same compound, the “DBP 24-h pattern highest, LS mean change at Week 6 from baseline” value (“DBP 24-h pattern highest, LS mean change” below) (patients with NT1; 0.5 mg/0.5 mg) was 0.75, the “DBP 24-h pattern lowest, LS mean change at Week 6 from baseline” value (shortened to “DBP 24-h pattern lowest, LS mean change”) (patients with NT1; 0.5 mg/0.5 mg) was −1.73 and the “SBP 24-h average, LS mean change at Week 6 from baseline” value (“SBP 24-h average, LS mean change” below) (patients with NT1; 0.5 mg/0.5 mg) was −1.42. For the same compound, the “SBP 24-h pattern dip, LS mean change at Week 6 from baseline” value (shortened to “SBP 24-h pattern dip, LS mean change”) (patients with NT1; 0.5 mg/0.5 mg) was 1.20%, the “SBP 24-h pattern highest, LS mean change at Week 6 from baseline” value (“SBP 24-h pattern highest, LS mean change” for short) (patients with NT1; 0.5 mg/0.5 mg) was −0.87 and the “SBP 24-h pattern lowest, LS mean change at Week 6 from baseline” value (“SBP 24-h pattern lowest, LS mean change” below) (patients with NT1; 0.5 mg/0.5 mg) was −2.48. For the same compound, the “DBP 24-h average, LS mean change” value (patients with NT1; 2 mg/2 mg) was −0.08, the “DBP 24-h pattern dip, LS mean change” value (patients with NT1; 2 mg/2 mg) was 7.9% and 7.91% and the “DBP 24-h pattern highest, LS mean change” value (patients with NT1; 2 mg/2 mg) was 1.62. For the same compound, the “DBP 24-h pattern lowest, LS mean change” value (patients with NT1; 2 mg/2 mg) was −5.93, the “SBP 24-h average, LS mean change” value (patients with NT1; 2 mg/2 mg) was 0.05 and the “SBP 24-h pattern dip, LS mean change” value (patients with NT1; 2 mg/2 mg) was 5.36%. The “SBP 24-h pattern highest, LS mean change” value (patients with NT1; 2 mg/2 mg) was 1.45, the “SBP 24-h pattern lowest, LS mean change” value (patients with NT1; 2 mg/2 mg) was −6.55 and the “DBP 24-h average, LS mean change” value (patients with NT1; 2 mg/5 mg) was −3.40. The “DBP 24-h pattern dip, LS mean change” value (patients with NT1; 2 mg/5 mg) was 8.1% and 8.11%, the “DBP 24-h pattern highest, LS mean change” value (patients with NT1; 2 mg/5 mg) was −1.18 and the “DBP 24-h pattern lowest, LS mean change” value (patients with NT1; 2 mg/5 mg) was −8.71. For the same compound, the “SBP 24-h average, LS mean change” value (patients with NT1; 2 mg/5 mg) was −4.13, the “SBP 24-h pattern dip, LS mean change” value (patients with NT1; 2 mg/5 mg) was 4.11% and the “SBP 24-h pattern highest, LS mean change” value (patients with NT1; 2 mg/5 mg) was −1.86. The “SBP 24-h pattern lowest, LS mean change” value (patients with NT1; 2 mg/5 mg) was −8.80, the “DBP 24-h average, LS mean change” value (patients with NT1; 7 mg QD) was −0.75 and the “DBP 24-h pattern dip, LS mean change” value (patients with NT1; 7 mg QD) was 6.6% and 6.61%. The “DBP 24-h pattern highest, LS mean change” value (patients with NT1; 7 mg QD) was 1.26, the “DBP 24-h pattern lowest, LS mean change” value (patients with NT1; 7 mg QD) was −5.13 and the “SBP 24-h average, LS mean change” value (patients with NT1; 7 mg QD) was 1.32. The “SBP 24-h pattern dip, LS mean change” value (patients with NT1; 7 mg QD) was 3.28%, the “SBP 24-h pattern highest, LS mean change” value (patients with NT1; 7 mg QD) was 3.31 and the “SBP 24-h pattern lowest, LS mean change” value (patients with NT1; 7 mg QD) was −2.44. The “DBP 24-hour pattern dip, change from baseline at Week 6” value (patients with NT1; whole population (n=111), any Compound A dose) was “no significant changes”, the “Number of nocturnal awakenings, awakenings >5 min and longest sleep bout (accelerometry)” value (participants with NT1 [1]; 2 mg/2 mg cohort (FIG. 7)) was “small but statistically significant reductions” and the “At-home nighttime TST and WASO, change from baseline” value (participants with NT1 [1]; accelerometry, overall (FIG. 7)) was “minimal changes overall”. The “At-home TST” value (participants with NT1 [1]; week 1 only, 2 mg/5 mg and 7 mg QD cohorts, resolving over time) was “reduced TST was observed”, the “NSS-CT total score, LS mean change from baseline to Week 8” value (from here on “NSS-CT total score, LS mean change”) (participants with NT1 [2]; 0.5 mg/0.5 mg) was −18.2 and the “NSS-CT total score, LS mean change” value (participants with NT1 [2]; 2 mg/2 mg) was −21.0. For the same compound, the “NSS-CT total score, LS mean change” value (participants with NT1 [2]; 2 mg/5 mg) was −21.1 and the “NSS-CT total score, LS mean change” value (participants with NT1 [2]; 7 mg) was −17.2.
